Test results taken from article PMC9728511, “Direct formation and site-selective elaboration of methionine sulfoximine in polypeptides” (Chemical Science, 2022).

Test system: glutamine synthetase (GS)
Assay: glutamine synthetase inhibition assay (glutamine synthetase activity assay kit, Abcam)
Type: biochemical
Conditions: for Inhibition (%) of glutamine synthetase, Assay 1: Table S4, assay 1 of 3; for Inhibition (%) of glutamine synthetase, Assay 1 / Inhibition (%) of glutamine synthetase, Assay 2 / Inhibition (%) of glutamine synthetase, Assay 3: 1 mM inhibitor final concn, enzyme pre-incubated with inhibitor 37 °C 10 min, colorimetric ADP detection, A570 (average of 3 readings), background subtracted, vs enzyme control; for Inhibition (%) of glutamine synthetase, Assay 1 / Inhibition (%) of glutamine synthetase, Assay 2 / Inhibition (%) of glutamine synthetase, Assay 3 / Average inhibition (%) of glutamine synthetase: reaction 37 °C 60 min; for Inhibition (%) of glutamine synthetase, Assay 2: Table S5, assay 2 of 3; for Inhibition (%) of glutamine synthetase, Assay 3: Table S6, assay 3 of 3; for Average inhibition (%) of glutamine synthetase: Table S7, average of assay 1, 2 and 3 (mean of 3 independent experiments), 1 mM inhibitor, pre-incubation 37 °C 10 min, A570; for inhibitory activity on glutamine synthetase compared with MSO: screen at 1 mM inhibitor concentration (Fig. 4), comparison in words
Method: Assays were performed at 1 mM inhibitor concentration using a glutamine synthetase activity assay kit (Abcam).
Procedure f or the glutamine synthetase inhibition assay (Figure 4)
In this assay, glutamine synthetase catalyzesthe transformation from g lutamate and ATP t o g lutamine and ADP. ADP in the subsequent reaction, in presence of ADP converter, ADP d eveloper and ADP pr obe , forms a colorimetric product that is measured at absorbance 570 nm.
1. Stock solutions of glutamine synthetase, ATP, ADP converter, and ADP developer were prepared according to the protocol by Abcam: https://www.abcam.com/ps/products/284/ab284572/documents/Glutamine-Synthetase- Activity-Assay- […]
GS assay buffer, glutamate, and ADP probe were used as supplied.
2. Glutamine synthetase (2 µL ) was pre- incubated with methionine sulfoximine (MSO) (2 µL, 10 mM, 1 mM final concn) and methionine sulfoximine peptides 1b -8b (2 µL, 10 mM, 1 mM final concn) at 37 °C for 10 min, protected from light. For enzyme control, GS assay buffer (2 µL ) was used instead of MSO or peptides 1b -8b. For background control, GS assay buffer (4 µL) without enzyme was used.
3. Substrate mix was prepared by mixing GS assay buffer (96 µL ), glutamate (24 µL ), and ATP (24 µL ).
The resulting substrate mix (12 µL) was added to each sample.
4. ADP reactio n mix was prepared by mixing GS assay buffer (42 µL), ADP probe (6 µL), ADP converter (6 µL), and ADP developer (6 µL ). The resulting ADP reaction mix (4 µL ) was added to each sample. The total reaction volume for each sample is 20 µL.
5. After incubation of the reaction mixture at 37 °C for 60 mi n , the absorbance at 570 nm (A570) was measured on a Thermo Scientific NanoDrop 2000c spectrophotometer. For each sample, A570 was measure […]
6. The background control reading was subtracted from test sample readings and enzyme control readings.
7. Inhibition of glutamine synthetase was det er mi ned by comparing A570 (test sample) and A570 ( enzyme
Percentage inhibition = A570 (enzyme control)−A570 (test sample)A570 (enzyme control) × 100%
8. The assay was repeated for 3 times and the percentage inhibition values are me a n ± S D of 3 independent

| Inhibition (%) of glutamine synthetase, Assay 1 [%] | Inhibition (%) of glutamine synthetase, Assay 2 [%] | Inhibition (%) of glutamine synthetase, Assay 3 [%] | Average inhibition (%) of glutamine synthetase [%] | inhibitory activity on glutamine synthetase compared with MSO | Compound |
| --- | --- | --- | --- | --- | --- |
| 13.3 | 15.5 | 14.3 | 14.4 |  | Ac-VGMSWP-NH2 [4b] |
| 1.7 | 3.1 | 3.7 | 2.8 |  | Ac-RPKPQQFFGLM-NH2 (substance P) [7b] |
| 35.3 | 33.6 | 36.1 | 35.0 | higher than that observed for MSO | Ac-SYSMEHFRWGKPV-NH2 (α-MSH) [8b] |
| 9.5 | 13.0 | 12.1 | 11.5 |  | Ac-FPQSGM-NH2 [5b] |
| 28.6 | 26.2 | 24.1 | 26.3 | higher than that observed for MSO | Ac-MGRFTINP-NH2 [6b] |

Second part, the compound before the results:

| Compound | Inhibition (%) of glutamine synthetase, Assay 1 [%] | Inhibition (%) of glutamine synthetase, Assay 2 [%] | Inhibition (%) of glutamine synthetase, Assay 3 [%] | Average inhibition (%) of glutamine synthetase [%] | inhibitory activity on glutamine synthetase compared with MSO |
| --- | --- | --- | --- | --- | --- |
| Ac-MGDFQ-NH2 [1b] | 16.8 | 17.2 | 19.0 | 17.7 |  |
| CS(=N)(=O)CC[C@H](N)C(=O)O (some centres unmarked) [MSO, methionine sulfoximine] | 18.1 | 18.8 | 19.2 | 18.7 |  |
| Ac-YGMLNP-NH2 [3b] | 0.9 | 1.0 | 0.8 |  |  |
| Ac-MGKFQ-NH2 [2b] | 29.2 | 28.6 | 33.0 | 30.3 | higher than that observed for MSO |
